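Interpolation was linear, between the two tested concentrations surrounding the appropriate level; five concentrations were tested over 48 hours in 96-well plates. TGI: concentration producing complete growth inhibition.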
Columns and labels:
Assay in all cases: growth of human tumour cells (NCI), 48 h
NCI-H226 lung = tested on: NCI-H226 lung
HL-60(TB) leukemia = tested on: HL-60(TB) leukemia
RXF 393 renal = tested on: RXF 393 renal
SF-268 CNS = tested on: SF-268 CNS
COLO 205 colon = tested on: COLO 205 colon
NCI-H522 lung = tested on: NCI-H522 lung
MCF7 breast = tested on: MCF7 breast
HT29 colon = tested on: HT29 colon
MDA-MB-231 breast = tested on: MDA-MB-231 breast
SK-OV-3 ovarian = tested on: SK-OV-3 ovarian
UACC-62 melanoma = tested on: UACC-62 melanoma
M14 melanoma = tested on: M14 melanoma
MDA-N = tested on: MDA-N
UACC-257 melanoma = tested on: UACC-257 melanoma
PC-3 prostate = tested on: PC-3 prostate
EKVX NSCLC = tested on: EKVX NSCLC
UO-31 renal = tested on: UO-31 renal
HS 578T breast = tested on: HS 578T breast
OVCAR-8 ovarian = tested on: OVCAR-8 ovarian
MDA-MB-435 = tested on: MDA-MB-435
NCI/ADR-RES ovarian = tested on: NCI/ADR-RES ovarian
NCI-H23 lung = tested on: NCI-H23 lung
HCT-116 colon = tested on: HCT-116 colon
HOP-92 NSCLC = tested on: HOP-92 NSCLC
A549 NSCLC = tested on: A549 NSCLC
IGROV1 ovarian = tested on: IGROV1 ovarian
KM12 colon = tested on: KM12 colon
K-562 leukemia = tested on: K-562 leukemia
CAKI-1 renal = tested on: CAKI-1 renal
MALME-3M melanoma = tested on: MALME-3M melanoma
U251 CNS = tested on: U251 CNS
SR leukemia = tested on: SR leukemia
BT-549 breast = tested on: BT-549 breast
OVCAR-4 ovarian = tested on: OVCAR-4 ovarian
CCRF-CEM leukemia = tested on: CCRF-CEM leukemia
OVCAR-5 ovarian = tested on: OVCAR-5 ovarian
SW-620 colon = tested on: SW-620 colon
ACHN renal = tested on: ACHN renal
DU-145 prostate = tested on: DU-145 prostate
SK-MEL-2 melanoma = tested on: SK-MEL-2 melanoma
786-0 renal = tested on: 786-0 renal
HCC-2998 colon = tested on: HCC-2998 colon
NCI-H460 lung = tested on: NCI-H460 lung
HCT-15 colon = tested on: HCT-15 colon
HOP-62 NSCLC = tested on: HOP-62 NSCLC
SK-MEL-28 melanoma = tested on: SK-MEL-28 melanoma
SN12C renal = tested on: SN12C renal
TK-10 renal = tested on: TK-10 renal
SK-MEL-5 melanoma = tested on: SK-MEL-5 melanoma
OVCAR-3 ovarian = tested on: OVCAR-3 ovarian
LOX IMVI melanoma = tested on: LOX IMVI melanoma
SF-295 CNS = tested on: SF-295 CNS
A498 renal = tested on: A498 renal
T-47D breast = tested on: T-47D breast
SNB-19 CNS = tested on: SNB-19 CNS
MOLT-4 leukemia = tested on: MOLT-4 leukemia
SF-539 CNS = tested on: SF-539 CNS
DLD-1 colon = tested on: DLD-1 colon
DMS 114 small cell lung = tested on: DMS 114 small cell lung
RPMI-8226 leukemia = tested on: RPMI-8226 leukemia
SNB-75 CNS = tested on: SNB-75 CNS
KM20L2 colon = tested on: KM20L2 colon
LXFL 529 NSCLC = tested on: LXFL 529 NSCLC
XF 498 CNS = tested on: XF 498 CNS
M19-MEL melanoma = tested on: M19-MEL melanoma
DMS 273 small cell lung = tested on: DMS 273 small cell lung

## C1=Cc2cccc3occ(c23)C=C1
NCI-H226 lung
  TGI: > 100 µM
HL-60(TB) leukemia
  TGI: 48.2 µM
RXF 393 renal
  TGI: 88.3 µM
SF-268 CNS
  TGI: > 100 µM
COLO 205 colon
  TGI: 90.7 µM
NCI-H522 lung
  TGI: > 100 µM
MCF7 breast
  TGI: > 100 µM
HT29 colon
  TGI: > 100 µM
MDA-MB-231 breast
  TGI: > 100 µM
SK-OV-3 ovarian
  TGI: > 100 µM
UACC-62 melanoma
  TGI: > 100 µM
M14 melanoma
  TGI: > 100 µM
MDA-N
  TGI: > 100 µM
UACC-257 melanoma
  TGI: > 100 µM
PC-3 prostate
  TGI: > 100 µM
EKVX NSCLC
  TGI: > 100 µM
UO-31 renal
  TGI: > 100 µM
HS 578T breast
  TGI: > 100 µM
OVCAR-8 ovarian
  TGI: > 100 µM
MDA-MB-435
  TGI: > 100 µM
NCI/ADR-RES ovarian
  TGI: > 100 µM
NCI-H23 lung
  TGI: > 100 µM
HCT-116 colon
  TGI: > 100 µM
HOP-92 NSCLC
  TGI: > 100 µM
A549 NSCLC
  TGI: > 100 µM
IGROV1 ovarian
  TGI: > 100 µM
KM12 colon
  TGI: > 100 µM
K-562 leukemia
  TGI: 40.1 µM
CAKI-1 renal
  TGI: > 100 µM
MALME-3M melanoma
  TGI: > 100 µM
U251 CNS
  TGI: > 100 µM
SR leukemia
  TGI: 43 µM
BT-549 breast
  TGI: > 100 µM
OVCAR-4 ovarian
  TGI: > 100 µM
CCRF-CEM leukemia
  TGI: 49.9 µM
OVCAR-5 ovarian
  TGI: > 100 µM
SW-620 colon
  TGI: > 100 µM
ACHN renal
  TGI: > 100 µM
DU-145 prostate
  TGI: > 100 µM
SK-MEL-2 melanoma
  TGI: > 100 µM
786-0 renal
  TGI: > 100 µM
HCC-2998 colon
  TGI: > 100 µM
NCI-H460 lung
  TGI: > 100 µM
HCT-15 colon
  TGI: > 100 µM
HOP-62 NSCLC
  TGI: > 100 µM
SK-MEL-28 melanoma
  TGI: > 100 µM
SN12C renal
  TGI: > 100 µM
TK-10 renal
  TGI: > 100 µM
SK-MEL-5 melanoma
  TGI: > 100 µM
OVCAR-3 ovarian
  TGI: > 100 µM
LOX IMVI melanoma
  TGI: 33.8 µM
SF-295 CNS
  TGI: > 100 µM
A498 renal
  TGI: > 100 µM
T-47D breast
  TGI: > 100 µM
SNB-19 CNS
  TGI: > 100 µM
MOLT-4 leukemia
  TGI: 79.4 µM
SF-539 CNS
  TGI: > 100 µM

## CCC(=O)CCC1=Nc2nnc(CCCCc3nnc4n3C(=O)C(CCC(=O)CC)=N4)n2C1=O
NCI-H226 lung
  TGI: > 100 µM
HL-60(TB) leukemia
  TGI: > 100 µM
RXF 393 renal
  TGI: > 100 µM
DLD-1 colon
  TGI: > 100 µM
SF-268 CNS
  TGI: > 100 µM
COLO 205 colon
  TGI: > 100 µM
NCI-H522 lung
  TGI: > 100 µM
DMS 114 small cell lung
  TGI: > 100 µM
HT29 colon
  TGI: > 100 µM
SK-OV-3 ovarian
  TGI: > 100 µM
UACC-62 melanoma
  TGI: > 100 µM
RPMI-8226 leukemia
  TGI: > 100 µM
M14 melanoma
  TGI: > 100 µM
UACC-257 melanoma
  TGI: > 100 µM
SNB-75 CNS
  TGI: > 100 µM
KM20L2 colon
  TGI: > 100 µM
EKVX NSCLC
  TGI: > 100 µM
UO-31 renal
  TGI: > 100 µM
OVCAR-8 ovarian
  TGI: > 100 µM
NCI-H23 lung
  TGI: > 100 µM
HOP-92 NSCLC
  TGI: > 100 µM
A549 NSCLC
  TGI: > 100 µM
IGROV1 ovarian
  TGI: > 100 µM
KM12 colon
  TGI: > 100 µM
K-562 leukemia
  TGI: > 100 µM
LXFL 529 NSCLC
  TGI: > 100 µM
CAKI-1 renal
  TGI: > 100 µM
MALME-3M melanoma
  TGI: > 100 µM
OVCAR-4 ovarian
  TGI: > 100 µM
CCRF-CEM leukemia
  TGI: > 100 µM
OVCAR-5 ovarian
  TGI: > 100 µM
SW-620 colon
  TGI: > 100 µM
ACHN renal
  TGI: > 100 µM
XF 498 CNS
  TGI: > 100 µM
M19-MEL melanoma
  TGI: > 100 µM
SK-MEL-2 melanoma
  TGI: > 100 µM
786-0 renal
  TGI: > 100 µM
HCC-2998 colon
  TGI: > 100 µM
NCI-H460 lung
  TGI: > 100 µM
HCT-15 colon
  TGI: > 100 µM
HOP-62 NSCLC
  TGI: > 100 µM
SK-MEL-28 melanoma
  TGI: > 100 µM
SN12C renal
  TGI: > 100 µM
TK-10 renal
  TGI: > 100 µM
DMS 273 small cell lung
  TGI: > 100 µM
OVCAR-3 ovarian
  TGI: > 100 µM
LOX IMVI melanoma
  TGI: > 100 µM
SF-295 CNS
  TGI: > 100 µM
A498 renal
  TGI: > 100 µM
SNB-19 CNS
  TGI: > 100 µM
MOLT-4 leukemia
  TGI: > 100 µM
SF-539 CNS
  TGI: > 100 µM

Reference: PubChem BioAssay (NCI)
